Experimental data: article PMC6199744, “Development of Chemical Proteomics for the Folateome and Analysis of the Kinetoplastid Folateome” (ACS Infectious Diseases, 2018)
Where two headings read alike, the source gives them in different places.

Key:
Type in all cases: binding
[1] = target: T1, HeLa cell extract proteins (Homo sapiens, UniProt P32320)
T1 construct: endogenous in cells; host or cells: HeLa cell extract

[2] = target: T2, HeLa cell extract proteins (Homo sapiens, UniProt P43362)
T2 construct: endogenous in cells; host or cells: HeLa cell extract
T2 sequence (P43362 1-315): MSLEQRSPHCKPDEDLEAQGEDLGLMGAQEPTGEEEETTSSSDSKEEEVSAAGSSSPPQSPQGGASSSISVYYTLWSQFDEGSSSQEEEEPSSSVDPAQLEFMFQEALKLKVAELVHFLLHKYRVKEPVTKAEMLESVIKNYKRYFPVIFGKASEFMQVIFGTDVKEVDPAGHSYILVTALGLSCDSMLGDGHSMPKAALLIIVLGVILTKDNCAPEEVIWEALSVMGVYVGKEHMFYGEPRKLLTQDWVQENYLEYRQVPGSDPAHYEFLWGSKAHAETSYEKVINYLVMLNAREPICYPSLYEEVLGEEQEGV

[3] = target: T3, HeLa cell extract proteins (Homo sapiens, UniProt Q01813)
T3 construct: endogenous in cells; host or cells: HeLa cell extract
T3 sequence (Q01813 1-784): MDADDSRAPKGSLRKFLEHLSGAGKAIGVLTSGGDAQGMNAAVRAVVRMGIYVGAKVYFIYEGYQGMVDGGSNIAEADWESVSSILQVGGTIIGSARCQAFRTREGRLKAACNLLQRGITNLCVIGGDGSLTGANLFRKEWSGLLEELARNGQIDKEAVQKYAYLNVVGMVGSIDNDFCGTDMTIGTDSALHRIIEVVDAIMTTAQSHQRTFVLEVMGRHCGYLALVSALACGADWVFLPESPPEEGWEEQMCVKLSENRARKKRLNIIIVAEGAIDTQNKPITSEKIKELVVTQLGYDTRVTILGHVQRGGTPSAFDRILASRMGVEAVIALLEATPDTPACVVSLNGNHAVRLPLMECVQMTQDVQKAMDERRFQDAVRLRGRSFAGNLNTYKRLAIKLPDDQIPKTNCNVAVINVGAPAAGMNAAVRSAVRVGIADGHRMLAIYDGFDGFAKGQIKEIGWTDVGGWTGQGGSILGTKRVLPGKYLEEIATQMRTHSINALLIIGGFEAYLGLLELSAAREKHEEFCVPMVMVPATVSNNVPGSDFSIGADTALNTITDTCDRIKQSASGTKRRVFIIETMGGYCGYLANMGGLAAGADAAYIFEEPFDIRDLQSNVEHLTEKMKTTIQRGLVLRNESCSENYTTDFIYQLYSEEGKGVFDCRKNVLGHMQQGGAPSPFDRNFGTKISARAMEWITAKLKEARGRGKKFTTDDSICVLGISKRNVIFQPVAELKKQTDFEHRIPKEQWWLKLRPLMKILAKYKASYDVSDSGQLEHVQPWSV

[4] = target: T4, HeLa cell extract proteins (Homo sapiens, UniProt Q6P3X3)
T4 construct: endogenous in cells; host or cells: HeLa cell extract

[5] = target: T5, HeLa cell extract proteins (Homo sapiens, UniProt O43324)
T5 construct: endogenous in cells; host or cells: HeLa cell extract
T5 sequence (O43324 1-174): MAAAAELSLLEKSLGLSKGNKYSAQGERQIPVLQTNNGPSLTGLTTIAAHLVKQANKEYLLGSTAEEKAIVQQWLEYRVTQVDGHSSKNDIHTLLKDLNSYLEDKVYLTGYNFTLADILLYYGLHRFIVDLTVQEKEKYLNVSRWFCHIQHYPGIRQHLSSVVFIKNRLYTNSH

[6] = target: T6, HeLa cell extract proteins (Homo sapiens, UniProt Q8TEX9)
T6 construct: endogenous in cells; host or cells: HeLa cell extract
T6 sequence (Q8TEX9 1-1081): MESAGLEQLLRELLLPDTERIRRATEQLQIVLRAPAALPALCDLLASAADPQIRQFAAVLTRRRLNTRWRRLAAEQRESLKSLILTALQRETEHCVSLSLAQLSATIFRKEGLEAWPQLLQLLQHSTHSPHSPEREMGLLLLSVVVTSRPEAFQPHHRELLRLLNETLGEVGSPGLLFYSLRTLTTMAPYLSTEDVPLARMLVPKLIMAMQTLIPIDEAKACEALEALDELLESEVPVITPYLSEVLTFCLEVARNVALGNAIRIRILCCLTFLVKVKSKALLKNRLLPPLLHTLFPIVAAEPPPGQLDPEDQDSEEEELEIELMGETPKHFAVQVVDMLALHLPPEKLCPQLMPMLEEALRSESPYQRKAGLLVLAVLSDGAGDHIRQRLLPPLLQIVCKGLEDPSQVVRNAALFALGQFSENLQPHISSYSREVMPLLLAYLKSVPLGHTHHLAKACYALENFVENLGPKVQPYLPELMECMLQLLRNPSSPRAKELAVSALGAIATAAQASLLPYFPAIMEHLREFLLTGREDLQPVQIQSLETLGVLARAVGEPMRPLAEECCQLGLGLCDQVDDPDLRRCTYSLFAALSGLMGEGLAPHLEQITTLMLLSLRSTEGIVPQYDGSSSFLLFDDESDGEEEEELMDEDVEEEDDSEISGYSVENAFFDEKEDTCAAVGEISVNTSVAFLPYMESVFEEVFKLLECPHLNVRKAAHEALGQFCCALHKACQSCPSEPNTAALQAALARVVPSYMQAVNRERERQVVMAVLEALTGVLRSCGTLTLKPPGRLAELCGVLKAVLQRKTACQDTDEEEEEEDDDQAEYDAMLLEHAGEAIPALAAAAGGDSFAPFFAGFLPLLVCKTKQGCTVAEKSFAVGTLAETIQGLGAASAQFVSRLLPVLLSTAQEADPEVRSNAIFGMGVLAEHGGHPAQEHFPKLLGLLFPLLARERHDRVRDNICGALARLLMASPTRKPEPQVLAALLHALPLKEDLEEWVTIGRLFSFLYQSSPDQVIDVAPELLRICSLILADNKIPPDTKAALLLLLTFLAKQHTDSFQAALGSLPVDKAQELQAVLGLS

[7] = target: T7, HeLa cell extract proteins (Homo sapiens, UniProt P26641)
T7 construct: endogenous in cells; host or cells: HeLa cell extract
T7 sequence (P26641 whole entry): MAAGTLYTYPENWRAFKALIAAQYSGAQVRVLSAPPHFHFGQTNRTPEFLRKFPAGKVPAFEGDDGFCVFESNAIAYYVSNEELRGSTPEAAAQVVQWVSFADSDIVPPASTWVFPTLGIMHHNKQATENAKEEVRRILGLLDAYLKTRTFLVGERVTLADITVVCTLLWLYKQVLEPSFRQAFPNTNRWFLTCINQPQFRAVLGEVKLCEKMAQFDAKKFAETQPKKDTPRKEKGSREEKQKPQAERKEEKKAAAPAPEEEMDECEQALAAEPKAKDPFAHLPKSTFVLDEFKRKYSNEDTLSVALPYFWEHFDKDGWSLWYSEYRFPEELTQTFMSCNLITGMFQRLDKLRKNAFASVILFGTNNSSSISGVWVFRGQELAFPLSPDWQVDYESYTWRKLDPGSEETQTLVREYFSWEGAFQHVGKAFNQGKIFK

[8] = HeLa, protein EEF1E1 (EUKARYOTIC TRANSLATION ELONGATION FACTOR 1 EPSILON-1)

T1 sequence (P32320 whole entry): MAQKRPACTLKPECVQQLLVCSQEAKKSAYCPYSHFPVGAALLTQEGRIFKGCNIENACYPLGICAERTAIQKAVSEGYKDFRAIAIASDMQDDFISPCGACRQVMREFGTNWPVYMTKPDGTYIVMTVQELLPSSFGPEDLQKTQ

Nc1nc2c(c(=O)[nH]1)N(C=O)C(CNc1ccc(C(=O)N[C@@H](CCC(=O)O)C(=O)O)cc1)CN2 (stereo partly shown) [LEU, leucovorin]
fold changes relative to vehicle control ([1]; HeLa, captured protein CDA): 1.07 | fold changes relative to vehicle control ([2]; HeLa, protein MAGEA9): 0.95 | fold changes relative to vehicle control ([3]; HeLa, protein PFKP): 0.88 | fold changes relative to vehicle control ([4]; protein TTC27, HeLa): 0.76 | fold changes relative to vehicle control [5, 8]: 0.84 | fold changes relative to vehicle control ([6]; protein IPO4, HeLa): 0.89 | fold changes relative to vehicle control ([7]; HeLa, protein EEF1G): 1

NCCCNc1ccc(C(=O)NC(CCC(=O)O)C(=O)O)cc1 (stereo not shown) [compound 7]
fold changes relative to vehicle control ([1]; HeLa, captured protein CDA): 1.63 | fold changes relative to vehicle control ([2]; HeLa, protein MAGEA9): 1 | fold changes relative to vehicle control ([3]; HeLa, protein PFKP): 0.93 | fold changes relative to vehicle control ([4]; protein TTC27, HeLa): 0.82 | fold changes relative to vehicle control [5, 8]: 0.98 | fold changes relative to vehicle control ([6]; protein IPO4, HeLa): 0.94 | fold changes relative to vehicle control ([7]; HeLa, protein EEF1G): 0.94

CCCCCCOc1cccc(Cc2cnc(N)nc2N)c1 [compound 2]
fold changes relative to vehicle control ([1]; captured protein CDA, HeLa): 0.88 | fold changes relative to vehicle control ([2]; protein MAGEA9, HeLa): 1.24 | fold changes relative to vehicle control ([3]; captured protein PFKP, HeLa): 1.01 | fold changes relative to vehicle control ([4]; captured protein TTC27, HeLa): 0.92 | fold changes relative to vehicle control ([5]; protein EEF1E1, HeLa): 1.19 | fold changes relative to vehicle control ([6]; captured protein IPO4, HeLa): 1.01 | fold changes relative to vehicle control ([7]; protein EEF1G, HeLa): 1.67

CCCCCCOc1ccc(Cc2cnc(N)nc2N)cc1 [compound 1]
fold changes relative to vehicle control ([1]; captured protein CDA, HeLa): 0.91 | fold changes relative to vehicle control ([2]; protein MAGEA9, HeLa): 0.78 | fold changes relative to vehicle control ([3]; captured protein PFKP, HeLa): 1.05 | fold changes relative to vehicle control ([4]; captured protein TTC27, HeLa): 0.94 | fold changes relative to vehicle control ([5]; protein EEF1E1, HeLa): 0.9 | fold changes relative to vehicle control ([6]; captured protein IPO4, HeLa): 0.83 | fold changes relative to vehicle control ([7]; protein EEF1G, HeLa): 1.31

Nc1nc2cccc(-c3ccccc3)c2n1Cc1ccc(Cl)c(Cl)c1 [compound 3]
fold changes relative to vehicle control ([1]; captured protein CDA, HeLa): 0.94 | fold changes relative to vehicle control ([2]; protein MAGEA9, HeLa): 0.92 | fold changes relative to vehicle control ([3]; captured protein PFKP, HeLa): 1.02 | fold changes relative to vehicle control ([4]; captured protein TTC27, HeLa): 0.81 | fold changes relative to vehicle control ([5]; protein EEF1E1, HeLa): 1.12 | fold changes relative to vehicle control ([6]; captured protein IPO4, HeLa): 0.97 | fold changes relative to vehicle control ([7]; protein EEF1G, HeLa): 0.94

NCCOCCOCC(=O)Nc1nc2ncc(CNc3ccc(C(=O)NC(CCC(=O)O)C(=O)O)cc3)nc2c(=O)[nH]1 (stereo not shown) [compound 6]
fold changes relative to vehicle control ([1]; HeLa, captured protein CDA): 0.89 | fold changes relative to vehicle control ([2]; HeLa, protein MAGEA9): 1.04 | fold changes relative to vehicle control ([3]; HeLa, protein PFKP): 0.95 | fold changes relative to vehicle control ([4]; protein TTC27, HeLa): 0.8 | fold changes relative to vehicle control [5]: 1.02 | fold changes relative to vehicle control ([6]; protein IPO4, HeLa): 1.04 | fold changes relative to vehicle control ([7]; HeLa, protein EEF1G): 1.15

Nc1nc2[nH]cc(CCc3ccc(C(=O)N[C@@H](CCC(=O)O)C(=O)O)cc3)c2c(=O)[nH]1 [PTX, pemetrexed]
fold changes relative to vehicle control [1]: 1.06 | fold changes relative to vehicle control [2]: 0.82 | fold changes relative to vehicle control [3]: 0.9 | fold changes relative to vehicle control [4]: 0.74 | fold changes relative to vehicle control [5]: 0.89 | fold changes relative to vehicle control [6]: 0.88 | fold changes relative to vehicle control [7]: 1.05
